Data on 1 substance can be found in patent US20250179126A1, “A NOVEL PEPTIDE FROM A PHOTOSYNTHETIC BACERIUM DIRECTLY TARGETS MITOCHONDRIA TO TRIGGER APOPTOSIS IN ADVANCED PROSTATE CANCER CELLS” (priority 2022, published 2025).

Series [1] concerns the target T1, mitochondrial ATP synthase gamma subunit (ATP5C) (Homo sapiens, UniProt P36542).
T1 construct: endogenous in cells; host or cells: PC3 human prostate cancer cells, mitochondrial fraction (detergent extract)
T1 sequence (P36542 26-298): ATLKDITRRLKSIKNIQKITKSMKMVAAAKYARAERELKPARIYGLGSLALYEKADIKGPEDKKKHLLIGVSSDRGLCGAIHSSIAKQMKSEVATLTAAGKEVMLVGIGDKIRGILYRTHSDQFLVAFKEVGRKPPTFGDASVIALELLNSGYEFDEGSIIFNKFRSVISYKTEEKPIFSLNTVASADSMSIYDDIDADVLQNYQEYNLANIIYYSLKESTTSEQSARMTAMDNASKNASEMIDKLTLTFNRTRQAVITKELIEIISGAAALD
Kind of series: Pull-down assay with biotin-labeled peptides and protein identification. Format: binding. The following applies: mitochondrial fraction of PC3 cells, biotin-labeled peptide, 16 hr at 4° C. From the text:
8A, TEM image of PC3 cells. Representative TEM micrograph of aurB-treated cells depicting the intraritochondrial localization of aurB-GNRs (arrowheads) and mitochondria](Mt) swelling. Scale bar: 600 nm. Mt: mitochondria. […] Coomassie-stained SDS-PAGE gels are shown (8B). The protein band at ˜35 kDa (arrowhead) was identified as ATP5C using mass spectrometry analysis. The identified fragments are indicated in green underlined sequence (SEQ ID NO: 4)(8C).
Pull-down assay and protein identification: PC3 cells were washed twice with PBS, and the mitochondrial fraction was prepared with a Qproteome mitochondria isolation kit (Qiagen). […] The peptides were then preincubated with streptavidin-agarose beads for 4 hr. After washing, the beads were boiled, and the released proteins were subjected to SDS-PAGE analysis. A protein band of ˜35 kDa was subjected to microcapillary LC/MS/MS for protein identification (Harvard Medical School, Taplin Mass Spectrometry Facility). For IB, proteins were transferred to nitrocellulose membranes. After blocking with 5% BSA in TBST, the membranes were incubated with anti-ATP5C antibody at 1:25,000 in 5% BSA/TBST (Abcam) for 16 hr at 4° C. The secondary antibody was applied (anti-goat IgG-HRP; Santa Cruz Biotechnology). The signal was detected using enhanced chemiluminescence (ECL).

For series [2], the system named is PC3 cells. Kind of series: Annexin-V apoptosis assay by flow cytometry, PC3. Format: cell-based, human. Conditions: PC3, 48 hr; Ptxl 1 nM, p28 50 μM, aurA/aurB 0.5-50 μM. On the procedure: (§1) FIG. 7A-7D: Determination of apoptotic cell death. Prostate cancer cell lines (7A: LNCaP, 7B: DU145 and 7C: PC3) and normal prostate CRL11611 cells (7D) were exposed to the indicated agents for 48 hr and stained using apoptosis assay kits according to the manufacturer's instructions. The samples were analyzed by flow cytometry. Mean±SE (N=3).
(§2) After 48 hr, annexin-V apoptosis assays (Thermo Fisher Scientific) were conducted to detect apoptotic cells. At least 10,000 cells in each case were analyzed by FACS (RRC, UIC).
(A flow cytometer gives signals particle by particle.)

Series [3] deals with PC3 cells. Description: Cellular membrane toxicity, LDH leakage assay. Format: cell-based, human. The following applies: PC3, 0.2-200 μM, 37° C. On the procedure: FIG. 6A-6B: Cellular membrane toxicity assays. […] Cells treated with lysis buffer were defined as having 100% LDH release. Mean±SE (N=3).
Cellular membrane toxicity: LDH assays were performed as we previously described (Cha et al., Cancer Research 2020, 80: 1615-1623).
On the technique in general: LDH in the medium is a marker of cell lysis.

For the next series, the system named is Human cancer cells. Kind of series: MTT cell viability assay, human cancer cell panel. The following applies: 5-100 μM, 24 hr, 37° C. The format is cell-based. On the procedure: (§3) Cell viability was detected by MTT assays, and the control (PBS-treated) cells were considered 100% viable. Mean±SE (N=3). *P<0.05, **P<0.01, ***P<0.001.
Cytotoxicity assay: The MTT assay was performed as we previously described (Cha et al., Cancer Research 2020, 80: 1615-1623).
On the technique in general: Tetrazolium dyes change colour on reduction, which living cells bring about.

For series [4], the system named is LNCaP prostate cancer cells. Kind of series: MTT cell viability assay, LNCaP prostate cancer cells. Conditions: LNCaP (p53 wild-type, AR+), 24-72 hr; paclitaxel 1 nM. The format is cell-based, human. On the procedure: (§4) Cell lines and culture: Human cancer and noncancer (immortalized and nonimmortalized) cell lines were obtained from the American Type Culture Collection [prostate cancer (PC3, DU145 and LNCaP), normal prostate (CRL11611), breast cancer (MCF-7), ovarian cancer (SK-OV3 adenocarcinoma), lung cancer (A549)]. MDD2 breast cancer cells (p53 dominant-negative) were provided courtesy of Dr Andrei V. Gudkov, Roswell Park Cancer Institute. 20 All cell lines were cultured in MEM-E (Invitrogen) supplemented with 10% heat-inactivated fetal bovine serum (Atlanta Biological, Inc.), 100 units/mL penicillin, and 100 μg/mL streptomycin at 37° C. in 5% CO2.

In the next series the test system is LNCaP cells. Kind of series: Annexin-V apoptosis assay by flow cytometry, LNCaP. Format: cell-based, human. The following applies: 48 hr, Ptxl 1 nM, p28 50 μM, aurA/aurB 0.5-50 μM. Here is the method: as §1, §2
Series [5] can be described thus: Water solubility of peptides.
In series [6] the test system is PC3 prostate cancer cells. Kind of series: MTT cell viability assay, PC3 prostate cancer cells. Format: cell-based, human. The following applies: PC3 (p53-null, AR−), 24-72 hr; paclitaxel 1 nM. Here is the method: as §4
The subject of series [7] is DU145 prostate cancer cells. Description: MTT cell viability assay, DU145 prostate cancer cells. The format is cell-based, human. The following applies: DU145 (p53-mutant, AR−), 24-72 hr; paclitaxel 1 nM.
Excerpt: as §3, §4

The next series deals with DU145 cells. Description: Annexin-V apoptosis assay by flow cytometry, DU145. The following applies: DU145, 48 hr; Ptxl 1 nM, p28 50 μM, aurA/aurB 0.5-50 μM. The format is cell-based, human. On the procedure: as §1, §2
Series [8] relates to PC3 cells. Description: JC-1 mitochondrial membrane potential assay. Format: cell-based, human. The following applies: PC3, 1, 10 and 100 μM. On the procedure:
Cells were stained by using JC-1 Mitochondrial Membrane Potential Assay Kits according to the manufacturer's instructions to measure mitochondrial membrane potential, and fluorescence was measured by flow cytometry. 9B, Caspase-3 is involved in aurB-induced apoptosis. […] The inhibitor was used at the indicated concentrations. Mean±SE (N=3).
JC-1 dye (Invitrogen) was used to determine mitochondrial membrane potential. […] After washing with PBS, trypsinized PC3 cells were incubated with JC-1 dye and analyzed by FACS.

For series [9], the system named is normal prostate CRL11611 cells. Description: Annexin-V apoptosis assay by flow cytometry, normal prostate CRL11611. Format: cell-based, human. The following applies: normal CRL11611, 48 hr; Ptxl 1 nM, p28 50 μM, aurA/aurB 0.5-50 μM. Here is the method:
as §1, §2

With “LVK GGE AEA ANI ANA GLS AGP AAN YLPA [aurA]”, in series [1], the “binding to ATP5C (pull-down of ~35 kDa protein, IB)” value is on record as “did not”. Also, the apoptotic cell death result (with PC3 cells [2]; in the series with LNCaP cells; with DU145 cells; in [9]) was “very little effect” throughout. In the series with PC3 cells [3], the “cellular membrane toxicity (LDH release)” value is reported as “Neither aurA nor aurB induced cellular membrane toxicity at any concentrations”. Besides, the “anti-proliferative effect (MTT cell viability)” value with Human cancer cells is reported as “little effect at any concentration tested”. For the same substance, the “cytotoxic effect (MTT cell viability)” value in series [4], in series [6] and in series [7] was “not active” throughout. Also, the water solubility entry in [5] is on record as “highly water-soluble”. Moreover, in the series with PC3 cells [8], the “effect on mitochondrial membrane potential (JC-1)” value is “did not impact”.
